Source: ChEMBL document CHEMBL5634079, “Development of novel celastrol-ligustrazine hybrids as potent peroxiredoxin 1 inhibitors against lung cancer” (Eur J Med Chem, 2023)

How the values were obtained:
[1] = molecular target: T1, Peroxiredoxin-1 (Homo sapiens, UniProt Q06830); test: Inhibition of PRDX1 (unknown origin) in presence of cofactor A/cofactor B/NADPH incubated for 25 mins
T1 sequence (Q06830 whole entry): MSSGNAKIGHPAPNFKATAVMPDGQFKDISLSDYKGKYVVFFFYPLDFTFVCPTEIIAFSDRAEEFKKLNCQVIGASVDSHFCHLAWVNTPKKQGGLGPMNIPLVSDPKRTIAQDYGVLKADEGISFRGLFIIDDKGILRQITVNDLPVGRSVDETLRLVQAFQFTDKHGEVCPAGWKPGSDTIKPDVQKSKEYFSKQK

[2] = tested on: A549; test: Antiproliferative activity against human A549 cells assessed as inhibition of cell growth incubated for 48 hrs by MTT assay; type: functional, cell-based; settings: A549, 48 h
[3] = Antiproliferative activity against human LTEP-a2 cells assessed as inhibition of cell growth incubated for 48 hrs by MTT assay; type: functional, cell-based; settings: LTEP-A2, 48 h
[4] = tested on: NCI-H1975; test: Antiproliferative activity against human NCI-H1975 cells assessed as inhibition of cell growth incubated for 48 hrs by MTT assay; type: functional, cell-based; settings: NCI-H1975, 48 h
[5] = tested on: SK-HEP1; test: Antiproliferative activity against human SK-HEP1 cells assessed as inhibition of cell growth incubated for 48 hrs by MTT assay; type: functional, cell-based; settings: SK-HEP1, 48 h
[6] = tested on: MDA-MB-231; test: Antiproliferative activity against human MDA-MB-231 cells assessed as inhibition of cell growth incubated for 48 hrs by MTT assay; type: functional, cell-based; settings: MDA-MB-231, 48 h
[7] = tested on: A549; test: Induction of apoptosis in human A549 cells assessed as necrotic cells at 2 uM incubated for 48 hrs by Annexin V-FITC and PI staining based flow cytometric analysis (reference value: 4.68%); type: functional
[8] = tested on: A549; test: cells; settings: Homo sapiens, A549, 48 h
Description: Antiproliferative activity against human A549 cells assessed as inhibition of cell growth incubated for 48 hrs in presence of ligustrazine by MTT assay

[9] = Antiproliferative activity against human LTEP-a2 cells assessed as inhibition of cell growth incubated for 48 hrs in presence of ligustrazine by MTT assay; type: functional, cell-based; settings: LTEP-A2, 48 h
[10] = tested on: SK-HEP1; test: Antiproliferative activity against human SK-HEP1 cells assessed as inhibition of cell growth incubated for 48 hrs in presence of ligustrazine by MTT assay; type: functional, cell-based; settings: SK-HEP1, 48 h
[11] = tested on: A549; test: Inhibition of cell migration in human A549 cells assessed as reduction in wound area at 2 uM incubated for 24 hrs by inverted microscopic analysis; type: functional; parameters: scale not given: the % may be the effect or the level left
[12] = tested on: A549; test: Inhibition of cell invasion in human A549 cells incubated for 12 to 48 hrs by crystal violet staining based microscopic analysis; type: functional; settings: dose 2-4 µM, time 12-48 hrs
[13] = Antitumor activity against mouse Lewis lung carcinoma cell line implanted in C57BL/6J mouse assessed as tumor growth inhibition at 1 mg/kg, ip administered every day for 19 days; type: functional; settings: 456 h, time 19 day, read-out: TGI
[14] = tested on: NCI-H1975; test: Antiproliferative activity against human NCI-H1975 cells assessed as inhibition of cell growth incubated for 48 hrs in presence of ligustrazine by MTT assay; type: functional, cell-based; settings: NCI-H1975, 48 h
[15] = tested on: A549; test: Induction of apoptosis in human A549 cells assessed as early apoptotic cells at 2 uM incubated for 48 hrs by Annexin V-FITC and PI staining based flow cytometric analysis (reference value: 0.76%); type: functional
[16] = tested on: A549; test: Induction of apoptosis in human A549 cells assessed as late apoptotic cells at 2 uM incubated for 48 hrs by Annexin V-FITC and PI staining based flow cytometric analysis (reference value: 0.73%); type: functional
[17] = tested on: A549; test: Induction of apoptosis in human A549 cells assessed as viable cells at 2 uM incubated for 48 hrs by Annexin V-FITC and PI staining based flow cytometric analysis (reference value: 93.8%); type: functional; settings: read-out: Activity
[18] = Toxicity in C57BL/6J mouse implanted with mouse Lewis lung carcinoma cell line assessed as decrease in body weight at 0.5 to 1 mg/kg, ip administered every day for 19 days; type: organism-based; settings: in vivo, 456 h, dose 0.5-1 mg/kg, time 19 day
[19] = tested on: MDA-MB-231; test: cells; settings: Homo sapiens, MDA-MB-231, 48 h
Description: Antiproliferative activity against human MDA-MB-231 cells assessed as inhibition of cell growth incubated for 48 hrs in presence of ligustrazine by MTT assay

[20] = tested on: NCI-H1975; test: Antiproliferative activity against human NCI-H1975 cells assessed as inhibition of cell growth incubated for 48 hrs in presence of celastrol by MTT assay; type: functional, cell-based; settings: NCI-H1975, 48 h
[21] = tested on: MDA-MB-231; test: Antiproliferative activity against human MDA-MB-231 cells assessed as inhibition of cell growth incubated for 48 hrs in presence of celastrol by MTT assay; type: functional, cell-based; settings: MDA-MB-231, 48 h
[22] = Antiproliferative activity against human LTEP-a2 cells assessed as inhibition of cell growth incubated for 48 hrs in presence of celastrol by MTT assay; type: functional, cell-based; settings: LTEP-A2, 48 h
[23] = tested on: A549; test: Antiproliferative activity against human A549 cells assessed as inhibition of cell growth incubated for 48 hrs in presence of celastrol by MTT assay; type: functional, cell-based; settings: A549, 48 h
[24] = tested on: SK-HEP1; test: Antiproliferative activity against human SK-HEP1 cells assessed as inhibition of cell growth incubated for 48 hrs in presence of celastrol by MTT assay; type: functional, cell-based; settings: SK-HEP1, 48 h

SMILES	IC50 ([1]; read-out: IC50) [µM]	IC50 [2] [µM]	IC50 [3] [µM]	IC50 [4] [µM]	IC50 [5] [µM]	IC50 [6] [µM]	also measured
CC1=C(O)C(=O)C=C2C1=CC=C1[C@@]2(C)CC[C@@]2(C)[C@@H]3C[C@](C)(C(=O)NCc4nc(C)c(C)nc4C)CC[C@]3(C)CC[C@]12C	0.165	3.39	–	–	–	–	–
CCCC(=O)OC1=C(C)C2=CC=C3[C@@](C)(CC[C@@]4(C)[C@@H]5C[C@](C)(C(=O)NCc6nc(C)c(C)nc6C)CC[C@]5(C)CC[C@]34C)C2=CC1=O	0.285	1.56	5.96	1.48	2.78	3.64	–
CC1=C(OC(=O)/C=C/c2ccccc2)C(=O)C=C2C1=CC=C1[C@@]2(C)CC[C@@]2(C)[C@@H]3C[C@](C)(C(=O)OCc4nc(C)c(C)nc4C)CC[C@]3(C)CC[C@]12C	0.525	2.71	3.31	1.49	1.64	2.13	–
CC(=O)OC1=C(C)C2=CC=C3[C@@](C)(CC[C@@]4(C)[C@@H]5C[C@](C)(C(=O)OCc6nc(C)c(C)nc6C)CC[C@]5(C)CC[C@]34C)C2=CC1=O	0.481	5.27	–	–	–	–	–
[O-][n+]1c(CBr)c(CBr)[n+]([O-])c2ccccc21	14.8	–	–	–	–	–	–
CC(=O)OC1=C(C)C2=CC=C3[C@@](C)(CC[C@@]4(C)[C@@H]5C[C@](C)(C(=O)NCc6nc(C)c(C)nc6C)CC[C@]5(C)CC[C@]34C)C2=CC1=O	1.47	6.66	–	–	–	–	–
CC1=C(OC(=O)C2CC2)C(=O)C=C2C1=CC=C1[C@@]2(C)CC[C@@]2(C)[C@@H]3C[C@](C)(C(=O)NCc4nc(C)c(C)nc4C)CC[C@]3(C)CC[C@]12C	0.239	2.57	7.46	3.15	2.72	6.06	–
CC1=C(O)C(=O)C=C2C1=CC=C1[C@@]2(C)CC[C@@]2(C)[C@@H]3C[C@](C)(C(=O)O)CC[C@]3(C)CC[C@]12C [CELASTROL]	–	9.28	12	6.05	10	4.88	Activity [7]: 3.28%; IC50 [8]: 6.42 µM; IC50 [9]: 9.5 µM; IC50 [10]: 9.67 µM; Activity [11]: 50%; inhibition [12]: Dose-Dependent Effect; inhibition in vivo at 1 mg/kg [13]: 71%; IC50 [14]: 5.61 µM; Activity [15]: 5.21%; Activity [16]: 5.92%; viability at 2 µM [17]: 85.6%; Activity [18]: Non-Toxic; IC50 [19]: 4.86 µM
CC1=C(OC(=O)C2CCOCC2)C(=O)C=C2C1=CC=C1[C@@]2(C)CC[C@@]2(C)[C@@H]3C[C@](C)(C(=O)NCc4nc(C)c(C)nc4C)CC[C@]3(C)CC[C@]12C	1.53	4.28	–	–	–	–	–
Cc1nc(C)c(C)nc1C [LIGUSTRAZINE]	–	> 20	–	–	–	–	IC50 [1]: Not Active; IC50 [20]: 5.61 µM; IC50 [21]: 4.86 µM; IC50 [22]: 9.5 µM; IC50 [23]: 6.42 µM; IC50 [24]: 9.67 µM
CC1=C(O)C(=O)C=C2C1=CC=C1[C@@]2(C)CC[C@@]2(C)[C@@H]3C[C@](C)(C(=O)OCc4nc(C)c(C)nc4C)CC[C@]3(C)CC[C@]12C	2.49	2.59	–	–	–	–	–
CCC(=O)OC1=C(C)C2=CC=C3[C@@](C)(CC[C@@]4(C)[C@@H]5C[C@](C)(C(=O)NCc6nc(C)c(C)nc6C)CC[C@]5(C)CC[C@]34C)C2=CC1=O	0.979	6.57	–	–	–	–	–
